Laboratory results as given in patent US20260285875A1, “INHIBITORS OF PARG” (858 Therapeutics, Inc., priority 2023, published 2026).

biological target: T1, cellular PARG (Homo sapiens, UniProt Q86W56); experiment: Nuclear PAR accumulation assay (immunofluorescence high-content imaging, MMS-treated HeLa cells); type: cell-based; details: 1 hour compound then MMS 50 μg/mL for an additional hour
T1 construct: endogenous in cells; host or cells: HeLa
Outline: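 HeLa cells pretreated with compound for 1 h at 37° C, then given 50 μg/mL MMS for another hour. After methanol fixation, PAR was immunostained with DAPI nuclear counterstain; per-nucleus intensity and percent PAR-positive cells were imaged at 20× (≥1,000 cells/well). IC50 from four-parameter logistic fit.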

T1 sequence (Q86W56 whole entry): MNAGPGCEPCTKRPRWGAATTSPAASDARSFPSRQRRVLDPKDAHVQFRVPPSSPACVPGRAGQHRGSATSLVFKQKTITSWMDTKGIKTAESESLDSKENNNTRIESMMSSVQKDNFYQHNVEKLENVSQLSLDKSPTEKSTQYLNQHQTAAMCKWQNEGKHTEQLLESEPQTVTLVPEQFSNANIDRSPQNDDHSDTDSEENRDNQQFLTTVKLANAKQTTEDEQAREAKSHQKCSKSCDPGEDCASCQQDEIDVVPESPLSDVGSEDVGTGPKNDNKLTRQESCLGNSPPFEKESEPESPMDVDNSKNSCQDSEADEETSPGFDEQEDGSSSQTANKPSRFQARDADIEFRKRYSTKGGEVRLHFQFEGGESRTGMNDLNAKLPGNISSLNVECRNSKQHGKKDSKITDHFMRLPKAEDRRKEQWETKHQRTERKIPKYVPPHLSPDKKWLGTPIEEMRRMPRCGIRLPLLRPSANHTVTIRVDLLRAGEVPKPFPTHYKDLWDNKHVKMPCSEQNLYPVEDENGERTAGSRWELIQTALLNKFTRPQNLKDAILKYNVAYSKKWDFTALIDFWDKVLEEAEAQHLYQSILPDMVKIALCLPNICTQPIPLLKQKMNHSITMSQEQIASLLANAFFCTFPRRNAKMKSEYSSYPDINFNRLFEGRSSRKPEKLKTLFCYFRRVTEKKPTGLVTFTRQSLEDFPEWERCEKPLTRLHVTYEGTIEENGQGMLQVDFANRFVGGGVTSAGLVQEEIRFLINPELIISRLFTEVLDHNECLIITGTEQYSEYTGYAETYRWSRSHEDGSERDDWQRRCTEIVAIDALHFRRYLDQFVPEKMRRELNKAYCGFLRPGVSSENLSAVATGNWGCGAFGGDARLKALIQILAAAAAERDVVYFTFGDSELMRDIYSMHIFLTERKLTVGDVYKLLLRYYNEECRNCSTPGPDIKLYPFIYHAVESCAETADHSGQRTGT

SMILES	IC50
Cc1cc(C#C[C@@H]2CN=C3N(Cc4cnn(C)c4)C(=O)c4cc(S(=O)(=O)NC5(C)CC5)ccc4N32)ccn1 [Example 238, (R)-4-((1-methyl-1H-pyrazol-4-yl)methyl)-N-(1-methylcyclopropyl)-1-((2-methylpyridin-4-yl)ethynyl)-5-oxo-1,2,4,5-tetrahydroimidazo[1,2-a]quinazoline-7-sulfonamide]	< 100 nM
C[C@@H]1CN=C2N(Cc3ccnc(C#N)c3)C(=O)c3cc(S(=O)(=O)NC4(C)CC4)ccc3N21 [Example 239, (R)-4-((2-cyanopyridin-4-yl)methyl)-1-methyl-N-(1-methylcyclopropyl)-5-oxo-1,2,4,5-tetrahydroimidazo[1,2-a]quinazoline-7-sulfonamide]	100 to 1000 nM
[2H]C([2H])(c1cnn(C)c1)N1C(=O)c2cc(S(=O)(=O)NC3(C)CC3)c(SC)cc2N2C1=N[C@H]1CCC[C@H]12 [Example 240, (7aS,10aR)-6-((1-methyl-1H-pyrazol-4-yl)methyl-d2)-N-(1-methylcyclopropyl)-2-(methylthio)-5-oxo-6,7a,8,9,10,10a-hexahydro-5H-cyclopenta[4,5]imidazo[1,2-a]quinazoline-3-sulfonamide]	100 to 1000 nM
[2H]C([2H])(c1cnn(C)c1)N1C(=O)c2cc(S(=O)(=O)NC3(C)CC3)ccc2N2C1=NC[C@H]2C#CC1(N(CC)CC)CC1 [Example 241, (R)-1-((1-(diethylamino)cyclopropyl)ethynyl)-4-((1-methyl-1H-pyrazol-4-yl)methyl-d2)-N-(1-methylcyclopropyl)-5-oxo-1,2,4,5-tetrahydroimidazo[1,2-a]quinazoline-7-sulfonamide]	< 100 nM
[2H]C([2H])(c1cnn(C)c1)N1C(=O)c2cc(S(=O)(=O)NC3(C)CC3)ccc2N2C1=NC[C@H]2C#Cc1ncccc1C [Example 242, (R)-4-((1-methyl-1H-pyrazol-4-yl)methyl-d2)-N-(1-methylcyclopropyl)-1-((3-methylpyridin-2-yl)ethynyl)-5-oxo-1,2,4,5-tetrahydroimidazo[1,2-a]quinazoline-7-sulfonamide]	< 100 nM
C[C@@H]1CN=C2N(Cc3cn(C)nc3CC#N)C(=O)c3cc(S(=O)(=O)NC4(C)CC4)ccc3N21 [Example 243, (R)-4-((3-(cyanomethyl)-1-methyl-1H-pyrazol-4-yl)methyl)-1-methyl-N-(1-methylcyclopropyl)-5-oxo-1,2,4,5-tetrahydroimidazo[1,2-a]quinazoline-7-sulfonamide]	< 100 nM
[2H]C([2H])(c1cnn(C)c1)N1C(=O)c2cc(S(=O)(=O)NC3(C)CC3)ccc2N2C1=NC[C@H]2C#CC1(N(C)CCO)CC1 [Example 244, (R)-1-((1-((2-hydroxyethyl)(methyl)amino)cyclopropyl)ethynyl)-4-((1-methyl-1H-pyrazol-4-yl)methyl-d2)-N-(1-methylcyclopropyl)-5-oxo-1,2,4,5-tetrahydroimidazo[1,2-a]quinazoline-7-sulfonamide]	< 100 nM
CCN1C(=O)c2cc(S(=O)(=O)NC3(C)CC3)ccc2N2C1=NC[C@H]2C#Cc1c(F)cnn1C [Example 245, (R)-4-ethyl-1-((4-fluoro-1-methyl-1H-pyrazol-5-yl)ethynyl)-N-(1-methylcyclopropyl)-5-oxo-1,2,4,5-tetrahydroimidazo[1,2-a]quinazoline-7-sulfonamide]	< 100 nM
[2H]C([2H])(c1cnn(C)c1)N1C(=O)c2cc(S(=O)(=O)NC3(C)CC3)ccc2N2C1=NC[C@H]2C#Cc1cncnc1 [Example 246, (R)-4-((1-methyl-1H-pyrazol-4-yl)methyl-d2)-N-(1-methylcyclopropyl)-5-oxo-1-(pyrimidin-5-ylethynyl)-1,2,4,5-tetrahydroimidazo[1,2-a]quinazoline-7-sulfonamide]	< 100 nM
C[C@@H]1CN=C2N(Cc3cccnc3CC#N)C(=O)c3cc(S(=O)(=O)NC4(C)CC4)ccc3N21 [Example 247, (R)-4-((2-(cyanomethyl)pyridin-3-yl)methyl)-1-methyl-N-(1-methylcyclopropyl)-5-oxo-1,2,4,5-tetrahydroimidazo[1,2-a]quinazoline-7-sulfonamide]	100 to 1000 nM
Cn1cc(CN2C(=O)c3cc(S(=O)(=O)NC4(C)CC4)ccc3N3C2=NC[C@H]3C#C[C@H]2CCCN2)cn1 [Example 248, (R)-4-((1-methyl-1H-pyrazol-4-yl)methyl)-N-(1-methylcyclopropyl)-5-oxo-1-(((R)-pyrrolidin-2-yl)ethynyl)-1,2,4,5-tetrahydroimidazo[1,2-a]quinazoline-7-sulfonamide]	100 to 1000 nM
[2H]C([2H])(c1cnn(C)c1)N1C(=O)c2cc(S(=O)(=O)NC3(C)CC3)ccc2N2C1=NC[C@H]2C#Cc1nccnc1OC [Example 249, (R)-1-((3-methoxypyrazin-2-yl)ethynyl)-4-((1-methyl-1H-pyrazol-4-yl)methyl-d2)-N-(1-methylcyclopropyl)-5-oxo-1,2,4,5-tetrahydroimidazo[1,2-a]quinazoline-7-sulfonamide]	< 100 nM
[2H]C([2H])(c1cnn(C)c1)N1C(=O)c2cc(S(=O)(=O)NC3(C)CC3)ccc2N2C1=NC[C@H]2C#Cc1cccnc1N [Example 250, (R)-1-((2-aminopyridin-3-yl)ethynyl)-4-((1-methyl-1H-pyrazol-4-yl)methyl-d2)-N-(1-methylcyclopropyl)-5-oxo-1,2,4,5-tetrahydroimidazo[1,2-a]quinazoline-7-sulfonamide]	< 100 nM
[2H]C([2H])(c1cnn(C)c1)N1C(=O)c2cc(S(=O)(=O)NC3(C)CC3)ccc2N2C1=NC[C@H]2C#Cc1ncc(C)nc1C [Example 251, (R)-1-((3,5-dimethylpyrazin-2-yl)ethynyl)-4-((1-methyl-1H-pyrazol-4-yl)methyl-d2)-N-(1-methylcyclopropyl)-5-oxo-1,2,4,5-tetrahydroimidazo[1,2-a]quinazoline-7-sulfonamide]	< 100 nM
[2H]C([2H])(c1cnn(C)c1)N1C(=O)c2cc(S(=O)(=O)NC3(C)CC3)ccc2N2C1=NC[C@H]2C#Cc1cncc(N)c1 [Example 252, (R)-1-((5-aminopyridin-3-yl)ethynyl)-4-((1-methyl-1H-pyrazol-4-yl)methyl-d2)-N-(1-methylcyclopropyl)-5-oxo-1,2,4,5-tetrahydroimidazo[1,2-a]quinazoline-7-sulfonamide]	< 100 nM
[2H]C([2H])(c1cnn(C)c1)N1C(=O)c2cc(S(=O)(=O)NC3(C)CC3)ccc2N2C1=NC[C@H]2C#Cc1cncc(N(C)C)c1 [Example 253, (R)-1-((5-(dimethylamino)pyridin-3-yl)ethynyl)-4-((1-methyl-1H-pyrazol-4-yl)methyl-d2)-N-(1-methylcyclopropyl)-5-oxo-1,2,4,5-tetrahydroimidazo[1,2-a]quinazoline-7-sulfonamide]	< 100 nM
C=Cc1ccc(CN2C(=O)c3cc(S(=O)(=O)NC4(C)CC4)ccc3N3C2=NC[C@H]3C)cn1 [Example 254, (R)-1-methyl-N-(1-methylcyclopropyl)-5-oxo-4-((6-vinylpyridin-3-yl)methyl)-1,2,4,5-tetrahydroimidazo[1,2-a]quinazoline-7-sulfonamide]	100 to 1000 nM
C=Cc1cc(CN2C(=O)c3cc(S(=O)(=O)NC4(C)CC4)ccc3N3C2=NC[C@H]3C)ccn1 [Example 255, (R)-1-methyl-N-(1-methylcyclopropyl)-5-oxo-4-((2-vinylpyridin-4-yl)methyl)-1,2,4,5-tetrahydroimidazo[1,2-a]quinazoline-7-sulfonamide]	< 100 nM
CN1CCC[C@@H]1C#C[C@@H]1CN=C2N(Cc3cnn(C)c3)C(=O)c3cc(S(=O)(=O)NC4(C)CC4)ccc3N21 [Example 256, (R)-4-((1-methyl-1H-pyrazol-4-yl)methyl)-N-(1-methylcyclopropyl)-1-(((R)-1-methylpyrrolidin-2-yl)ethynyl)-5-oxo-1,2,4,5-tetrahydroimidazo[1,2-a]quinazoline-7-sulfonamide]	< 100 nM
CCN1C(=O)c2cc(S(=O)(=O)NC3(C)CC3)ccc2N2C1=NC[C@H]2C#Cc1nn(C)nc1C [Example 257, (R)-1-((2,5-dimethyl-2H-1,2,3-triazol-4-yl)ethynyl)-4-ethyl-N-(1-methylcyclopropyl)-5-oxo-1,2,4,5-tetrahydroimidazo[1,2-a]quinazoline-7-sulfonamide]	< 100 nM
[2H]C([2H])(c1cnn(C)c1)N1C(=O)c2cc(S(=O)(=O)NC3(C)CC3)ccc2N2C1=NC[C@H]2C#Cc1cnc(OC)nc1 [Example 259, (R)-1-((2-methoxypyrimidin-5-yl)ethynyl)-4-((1-methyl-1H-pyrazol-4-yl)methyl-d2)-N-(1-methylcyclopropyl)-5-oxo-1,2,4,5-tetrahydroimidazo[1,2-a]quinazoline-7-sulfonamide]	< 100 nM
[2H]C([2H])(c1cnn(C)c1)N1C(=O)c2cc(S(=O)(=O)NC3(C)CC3)ccc2N2C1=NC[C@H]2C#Cc1cccnn1 [Example 260, (R)-4-((1-methyl-1H-pyrazol-4-yl)methyl-d2)-N-(1-methylcyclopropyl)-5-oxo-1-(pyridazin-3-ylethynyl)-1,2,4,5-tetrahydroimidazo[1,2-a]quinazoline-7-sulfonamide]	< 100 nM
[2H]C([2H])(c1cnn(C)c1)N1C(=O)c2cc(S(=O)(=O)NC3(C)CC3)ccc2N2C1=NC[C@H]2C#Cc1cnc(C2CC2)nc1 [Example 261, (R)-1-((2-cyclopropylpyrimidin-5-yl)ethynyl)-4-((1-methyl-1H-pyrazol-4-yl)methyl-d2)-N-(1-methylcyclopropyl)-5-oxo-1,2,4,5-tetrahydroimidazo[1,2-a]quinazoline-7-sulfonamide]	< 100 nM
[2H]C([2H])(c1cnn(C)c1)N1C(=O)c2cc(S(=O)(=O)NC3(C)CC3)ccc2N2C1=NC[C@H]2C#Cc1cncnc1OC [Example 262, (R)-1-((4-methoxypyrimidin-5-yl)ethynyl)-4-((1-methyl-1H-pyrazol-4-yl)methyl-d2)-N-(1-methylcyclopropyl)-5-oxo-1,2,4,5-tetrahydroimidazo[1,2-a]quinazoline-7-sulfonamide]	< 100 nM
